Broadly, the IC50 is the midpoint of a concentration-inhibition curve.

For this test, the target named is T1, Catenin beta-1 (Homo sapiens, UniProt P35222).
T1 sequence (P35222 whole entry): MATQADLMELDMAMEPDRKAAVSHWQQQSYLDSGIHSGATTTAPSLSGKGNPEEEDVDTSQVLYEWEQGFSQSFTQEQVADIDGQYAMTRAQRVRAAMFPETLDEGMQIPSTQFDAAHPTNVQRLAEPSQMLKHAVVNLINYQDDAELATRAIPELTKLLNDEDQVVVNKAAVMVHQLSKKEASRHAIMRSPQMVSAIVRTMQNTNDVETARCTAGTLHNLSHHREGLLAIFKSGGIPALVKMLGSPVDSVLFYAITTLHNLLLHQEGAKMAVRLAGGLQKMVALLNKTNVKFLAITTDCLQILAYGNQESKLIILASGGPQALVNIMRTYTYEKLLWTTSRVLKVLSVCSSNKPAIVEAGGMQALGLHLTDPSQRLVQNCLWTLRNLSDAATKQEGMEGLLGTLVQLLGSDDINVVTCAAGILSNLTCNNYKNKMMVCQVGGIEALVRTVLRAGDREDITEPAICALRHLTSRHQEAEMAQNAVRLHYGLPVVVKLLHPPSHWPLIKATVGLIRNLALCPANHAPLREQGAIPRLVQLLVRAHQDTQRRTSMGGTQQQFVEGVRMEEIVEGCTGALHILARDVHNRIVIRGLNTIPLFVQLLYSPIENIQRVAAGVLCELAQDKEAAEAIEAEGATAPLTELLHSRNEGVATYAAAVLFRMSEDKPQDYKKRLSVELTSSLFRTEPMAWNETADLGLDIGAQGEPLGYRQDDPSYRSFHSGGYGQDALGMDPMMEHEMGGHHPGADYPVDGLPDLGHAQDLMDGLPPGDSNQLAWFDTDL
Briefly: Inhibition of GST-tagged Tcf4 binding to human beta-catenin after 2 hrs by ELISA. In general terms: ELISA stands for enzyme-linked immunosorbent assay.
As for `CCCC(=O)c1cc2c(c(O)c1C)C(=O)C(=O)c1c(O)cccc1-2`, the half-inhibitory concentration (IC50) was less than 10 µM.

The compound `COC(=O)c1c(C)cc2c(c1O)[C@]1(O)C(=O)c3cc4c(c(O)c3C(=O)[C@]1(OC)[C@H](O)C2)C(=O)C=C(N[C@@H]1O[C@H](C)[C@@H](OC)[C@H](O)[C@@H]1OC)C4=O` displayed an IC50 of less than 10 µM.

As to `COc1c(C[C@@H](C)OC(=O)Oc2ccc(O)cc2)c2c3c(C[C@@H](C)OC(=O)c4ccccc4)c(OC)c(=O)c4c(O)cc(OC)c(c5c(OC)cc(O)c(c1=O)c52)c43` [CALPHOSTIN C], the IC50 was less than 10 µM.

`COc1c(CC(C)OC(=O)c2c(C)cc(O)cc2O)c2c3c(CC(C)OC(=O)c4c(C)cc(O)cc4O)c(OC)c(=O)c4c(O)cc(OC)c(c5c(OC)cc(O)c(c1=O)c52)c43` (centres undefined) came in with an IC50 of less than 10 µM.

The record behind these values is ChEMBL document CHEMBL2396623, “Direct targeting of β-catenin: Inhibition of protein-protein interactions for the inactivation of Wnt signaling” (Bioorg Med Chem, 2013).
